Measured values reported in patent publication EP2351737A1, “3-Amino-1-arylpropyl indoles and aza-substituted indoles” (F. Hoffmann-La Roche AG, priority 2005, dated 2007).
Structures can show the parent of a compound that is named as a salt.

How the values were obtained:
[1] = target: T1, Human Serotonin Transporter (hSERT) (Homo sapiens, UniProt P31645); assay: Human Serotonin Transporter (hSERT) Scintillation Proximity Assay (SPA), competition with [3H]-Citalopram; assay type: binding; settings: membranes of HEK-293 cells expressing recombinant hSERT, Ki by Cheng-Prusoff; for Ki: read-out: pKi SERT (converted)
T1 construct: expressed in transfected cells; membranes prepared from them
Source text: Screening for Human Serotonin Transporter (hSERT) Antagonists Using a Scintillation Proximity Assay (SPA)
Scintillation Proximity Assay (SPA) works by bringing radioligand within close proximity to the bead's scintillant to stimulate light emission. […] Unbound radioligand produced no signal as a result of distant proximity to scintillant (lack of energy transfer).

[2] = target: Human Norepinephrine Transporter (hNET) (Homo sapiens, UniProt P23975); assay: Human Norepinephrine Transporter (hNET) Scintillation Proximity Assay (SPA), competition with [3H]-Nisoxetine; settings: membranes of HEK-293 cells expressing recombinant hNET, Ki by Cheng-Prusoff; for Ki: pKi NET
Sequence of Human Norepinephrine Transporter (hNET) (P23975 whole entry): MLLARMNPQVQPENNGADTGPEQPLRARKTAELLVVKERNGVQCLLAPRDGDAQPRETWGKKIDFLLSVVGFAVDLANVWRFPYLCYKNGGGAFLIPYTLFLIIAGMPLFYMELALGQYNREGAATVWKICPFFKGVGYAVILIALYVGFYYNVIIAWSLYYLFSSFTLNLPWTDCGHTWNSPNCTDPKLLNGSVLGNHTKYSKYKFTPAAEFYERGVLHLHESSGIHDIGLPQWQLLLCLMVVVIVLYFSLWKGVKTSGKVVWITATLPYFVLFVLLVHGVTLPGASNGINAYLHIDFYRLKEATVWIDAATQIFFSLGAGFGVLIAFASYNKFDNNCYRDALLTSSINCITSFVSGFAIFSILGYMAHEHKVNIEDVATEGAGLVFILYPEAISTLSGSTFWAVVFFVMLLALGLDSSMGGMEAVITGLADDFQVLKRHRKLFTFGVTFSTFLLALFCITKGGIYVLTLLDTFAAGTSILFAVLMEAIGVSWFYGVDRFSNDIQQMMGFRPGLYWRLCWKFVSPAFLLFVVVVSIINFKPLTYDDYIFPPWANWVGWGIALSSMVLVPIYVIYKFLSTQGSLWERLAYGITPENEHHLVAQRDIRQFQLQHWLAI

T1 sequence (P31645 whole entry): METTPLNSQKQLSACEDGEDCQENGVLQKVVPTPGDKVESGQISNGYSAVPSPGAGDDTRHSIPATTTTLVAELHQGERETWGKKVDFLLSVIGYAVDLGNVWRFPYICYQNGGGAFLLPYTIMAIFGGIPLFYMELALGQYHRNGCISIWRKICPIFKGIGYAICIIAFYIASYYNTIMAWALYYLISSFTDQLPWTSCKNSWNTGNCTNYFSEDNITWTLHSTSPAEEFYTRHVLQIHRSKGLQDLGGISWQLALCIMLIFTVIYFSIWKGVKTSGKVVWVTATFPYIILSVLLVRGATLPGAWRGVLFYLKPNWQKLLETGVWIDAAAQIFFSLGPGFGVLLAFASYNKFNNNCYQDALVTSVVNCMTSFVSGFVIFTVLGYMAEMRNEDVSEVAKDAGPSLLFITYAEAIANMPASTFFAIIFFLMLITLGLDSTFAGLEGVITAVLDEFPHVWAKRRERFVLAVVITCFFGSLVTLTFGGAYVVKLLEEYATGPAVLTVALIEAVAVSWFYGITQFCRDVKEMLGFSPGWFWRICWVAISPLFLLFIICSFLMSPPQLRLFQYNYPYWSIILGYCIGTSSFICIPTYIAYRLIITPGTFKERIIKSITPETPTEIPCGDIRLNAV

Q: With `CNCCC(c1ccccc1)c1ccc2[nH]nc(OCC3CC3)c2c1` (stereo not shown) [Compound 81, [3-(3-Cyclopropylmethoxy-1H-indazol-5-yl)-3-phenyl-propyl]-methyl-amine] as the compound, how does the Ki [1] read?
A: Its Ki is 56.2 nM.

Q: What about the Ki [2] of the same compound?
A: The Ki was 214 nM.

Q: What does the source list for `CNCCC(c1ccccc1)c1ccc2occc2c1` (stereo not shown) [Compound 141, (3-Benzofuran-5-yl-3-phenyl-propyl)-methyl-amine]?
A: Ki [1]: 22.4 nM; Ki [2]: 10.7 nM

Q: For “[3-(7-Fluoro-1H-indol-5-yl)-3-(2-fluoro-phenyl)-propyl]-methyl-amine [Compound 95]”, which “pKi SERT” value [1] is on record?
A: The value was 7.22.

Q: What about the “pKi NET” value [2] of the same compound?
A: The value was 8.32.

Q: `CNCCC(c1ccccc1)c1cc(F)c2c(c1)c(C#N)cn2C` (stereo not shown) [Compound 127, 7-Fluoro-1-methyl-5-(3-methylamino-1-phenyl-propyl)-1H-indole-3-carbonitrile] was tested. Which Ki [1] did it give?
A: Its Ki is 8.32 nM.

Q: What about the Ki [2] of the same compound?
A: The Ki was 51.3 nM.

Q: What does the source list for `CNCCC(c1ccc2[nH]ccc2c1)c1ccc2sccc2c1` (stereo not shown) [Compound 116, [3-Benzo[b]thiophen-5-yl-3-(1H-indol-5-yl)-propyl]-methyl-amine]?
A: Ki [1]: 1.74 nM; Ki [2]: 5.01 nM

Q: Which results are given for `CNCC[C@H](c1ccccc1)c1cc(C)c2[nH]ncc2c1` [Compound 78, Methyl-[3-(7-methyl-1H-indazol-5-yl)-3-(R)-phenyl-propyl]-amine]?
A: Ki [1]: 10 nM; Ki [2]: 19.5 nM

Q: With `CNCCC(c1ccccc1)c1cc(OC)c2cc[nH]c2c1` (stereo not shown) [Compound 30] as the compound, how does the “pKi SERT” value [1] read?
A: The value was 9.06.

Q: And the “pKi NET” value [2]?
A: The value was 7.63.

Q: What does the source list for `CNCC[C@H](c1ccccc1)c1ccc2[nH]nc(Cl)c2c1` [Compound 61, [(R)-3-(3-Chloro-1H-indazol-5-yl)-3-phenyl-propyl]-methyl-amine trifluoracetate]?
A: Ki [1]: 3.39 nM; Ki [2]: 123 nM

Q: What does the source list for `CNCCC(c1ccc2[nH]ccc2c1)c1cccc2cc[nH]c12` (stereo not shown) [Compound 121, [3-(1H-Indol-7-yl)-3-(1H-indol-5-yl)-propyl]-methyl-amine]?
A: Ki [1]: 46.8 nM; Ki [2]: 56.2 nM

Q: How did the “pKi SERT” value [1] turn out when “7-Fluoro-5-(3-methylamino-1-(S)-phenyl-propyl)-1H-indole-3-carbonitrile [Compound 104]” was run?
A: Its value is 8.1.

Q: And the “pKi NET” value [2]?
A: The value was 7.49.

Q: Which results are given for “[3-(3,4-Dichloro-phenyl)-3-(7-fluoro-1H-indol-5-yl)-propyl]-methyl-amine [Compound 109]”?
A: pKi SERT [1]: 7.9; pKi NET [2]: 7.56

Q: How did the “pKi SERT” value [1] turn out when “[3-(3,4-Dichloro-phenyl)-3-(1H-indol-5-yl)-propyl]-methyl-amine [Compound 107]” was run?
A: The value was 8.17.

Q: What about the “pKi NET” value [2] of the same compound?
A: The value was 7.83.

Q: With “[3-(3-Chloro-1H-indazol-5-yl)-3-phenyl-propyl]-methyl-amine [Compound 57]” as the compound, how does the “pKi SERT” value [1] read?
A: Its value is 8.14.

Q: And the “pKi NET” value [2]?
A: The value was 7.06.

Q: With `CNCCC(c1ccccc1)c1ccc2[nH]nc(C)c2c1` (stereo not shown) [Compound 58, Methyl-[3-(3-methyl-1H-indazol-5-yl)-3-phenyl-propyl]-amine] as the compound, how does the Ki [1] read?
A: Its Ki is 42.7 nM.

Q: What about the Ki [2] of the same compound?
A: The Ki was 191 nM.

Q: Which “pKi SERT” value [1] does the source give for “[3-(5-Methoxy-1H-indol-6-yl)-3-phenyl-propyl]-methyl-amine [Compound 86]” here?
A: Its value is 8.01.

Q: What about the “pKi NET” value [2] of the same compound?
A: The value was 7.63.

Q: Which “pKi SERT” value [1] does the source give for “[3-(1H-Indol-6-yl)-3-(2-methoxy-phenyl)-propyl]-methyl-amine [Compound 34]” here?
A: Its value is 7.63.

Q: And the “pKi NET” value [2]?
A: Its value is 6.59.

Q: Which “pKi SERT” value [1] does the source give for “[3-(7-Fluoro-1H-indol-5-yl)-3-(4-fluoro-phenyl)-propyl]-methyl-amine [Compound 94]” here?
A: The value was 7.75.

Q: And the “pKi NET” value [2]?
A: The value was 8.0.

Q: Which Ki [1] does the source give for `CNCCC(c1ccccc1)c1ccc2[nH]ncc2c1` (stereo not shown) [Compound 51, [3-(1H-Indazol-5-yl)-3-phenyl-propyl]-methyl-amine hydrochloride] here?
A: Its Ki is 15.8 nM.

Q: And the Ki [2]?
A: The Ki was 34.7 nM.

Q: Which results are given for `Cn1cc(C#N)c2cc(C(CCN)c3ccccc3)cc(F)c21` (stereo not shown) [Compound 126, 5-(3-Amino-1-phenyl-propyl)-7-fluoro-1-methyl-1H-indole-3-carbonitrile]?
A: Ki [1]: 22.9 nM; Ki [2]: 398 nM

Q: How did the Ki [1] turn out when `CNCCC(c1ccccc1)c1ccc2sccc2c1` (stereo not shown) [Compound 143, (3-Benzo[b]thiophen-5-yl-3-phenyl-propyl)-methyl-amine] was run?
A: Its Ki is 22.4 nM.

Q: What about the Ki [2] of the same compound?
A: The Ki was 1.55 nM.

Q: Which Ki [1] does the source give for `CNCCC(c1ccccc1)c1cc(C(F)(F)F)c2[nH]ncc2c1` (stereo not shown) [Compound 85, Methyl-[3-phenyl-3-(7-trifluoromethyl-1H-indazol-5-yl)-propyl]-amine] here?
A: Its Ki is 21.4 nM.

Q: And the Ki [2]?
A: Its Ki is 15.1 nM.

Q: Which Ki [1] does the source give for `CNCCC(c1ccccc1)c1cc(Cl)c2[nH]ncc2c1` (stereo not shown) [Compound 77, [3-(7-Chloro-1H-indazol-5-yl)-3-phenyl-propyl]-methyl-amine] here?
A: Its Ki is 9.12 nM.

Q: And the Ki [2]?
A: Its Ki is 5.5 nM.

Q: For `CNCCC(c1ccccc1)c1cc(C)c2[nH]ncc2c1` (stereo not shown) [Compound 76, Methyl-[3-(7-methyl-1H-indazol-5-yl)-3-phenyl-propyl]-amine], which Ki [1] is on record?
A: The Ki was 17.4 nM.

Q: What about the Ki [2] of the same compound?
A: Its Ki is 25.7 nM.

Q: For `CNCCC(c1ccccc1)c1ccc2[nH]cc(C(N)=O)c2c1` (stereo not shown) [Compound 91, 5-(3-Methylamino-1-phenyl-propyl)-1H-indole-3-carboxylic acid amide], which Ki [1] is on record?
A: The Ki was 33.9 nM.

Q: And the Ki [2]?
A: The Ki was 603 nM.

Q: `NCCC(c1ccc2[nH]ccc2c1)c1ccc2[nH]ccc2c1` [Compound 119, 3,3-Bis-(1H-indol-5-yl)-propylamine] was tested. Which Ki [1] did it give?
A: Its Ki is 72.4 nM.

Q: And the Ki [2]?
A: Its Ki is 11.5 nM.

Q: What does the source list for “[3-(1H-Indol-5-yl)-3-quinolin-6-yl-propyl]-methyl-amine [Compound 112]”?
A: pKi SERT [1]: 8.67; pKi NET [2]: 7.5

Q: `CNCCC(c1ccccc1)c1ccc2[nH]cc(S(C)(=O)=O)c2c1` (stereo not shown) [Compound 16] was tested. Which Ki [1] did it give?
A: Its Ki is 151 nM.

Q: What about the Ki [2] of the same compound?
A: The Ki was 724 nM.

Q: What does the source list for `CNCCC(c1ccccc1)c1ccc2[nH]cc(C(=O)N(C)C)c2c1` (stereo not shown) [Compound 92, 5-(3-Methylamino-1-phenyl-propyl)-1H-indole-3-carboxylic acid dimethylamide]?
A: Ki [1]: 35.5 nM; Ki [2]: 316 nM

Q: Which “pKi SERT” value [1] does the source give for “[3,3-Bis-(7-fluoro-1H-indol-5-yl)-propyl]-methyl-amine [Compound 118]” here?
A: Its value is 7.43.

Q: And the “pKi NET” value [2]?
A: Its value is 8.87.
